Results taken from patent US12234230B2, “Substituted benzyl-triazole compounds for Cbl-b inhibition, and further uses thereof” (Nurix Therapeutics, Inc., priority 2019, dated 2025).

Tests used:
[1] = target: Cbl-b (Homo sapiens (Human), UniProt Q13191); assay: Cbl-b displacement assay (Cbl-b inhibition assay), Biological Example 1; assay type: binding; settings: 0.125 nM Cbl-b final concentration (Low); read-out: Cbl-b activity IC50 (Low)
Method: The ability of candidate compounds to displace a known inhibitor and thereby inhibit Cbl-b activity was measured by monitoring the interaction of Cbl-b with a fluorophore-labeled probe in the presence of the candidate compound.
Following the one hour incubation, the plates were read for TR-FRET signal at 520/620 nm using an Envision plate reader (Perkin Elmer).

[2] = test system: primary human total T-cells; assay: Primary human total T-cell activation (IL-2 secretion, CD25 surface staining), Biological Example 2; settings: fold change over baseline; for CD25 staining CD3/CD28 0.3 μM / IL-2 secretion CD3/CD28 0.3 μM: 0.3 μM inhibitor; for CD25 staining CD3/CD28 0.3 μM / IL-2 secretion CD3/CD28 0.3 μM / IL-2 secretion CD3/CD28 1 μM / CD25 staining CD3/CD28 1 μM: anti-CD3 and anti-CD28 co-stimulation; for IL-2 secretion CD3/CD28 1 μM / CD25 staining CD3 1 μM / IL-2 secretion CD3 1 μM / CD25 staining CD3/CD28 1 μM: 1 μM inhibitor; for CD25 staining CD3 1 μM / IL-2 secretion CD3 1 μM / CD25 staining CD3 3 μM / IL-2 secretion CD3 3 μM: anti-CD3 stimulation alone; for CD25 staining CD3 3 μM / IL-2 secretion CD3 3 μM: 3 μM inhibitor

Sequence of Cbl-b (Q13191 36-427): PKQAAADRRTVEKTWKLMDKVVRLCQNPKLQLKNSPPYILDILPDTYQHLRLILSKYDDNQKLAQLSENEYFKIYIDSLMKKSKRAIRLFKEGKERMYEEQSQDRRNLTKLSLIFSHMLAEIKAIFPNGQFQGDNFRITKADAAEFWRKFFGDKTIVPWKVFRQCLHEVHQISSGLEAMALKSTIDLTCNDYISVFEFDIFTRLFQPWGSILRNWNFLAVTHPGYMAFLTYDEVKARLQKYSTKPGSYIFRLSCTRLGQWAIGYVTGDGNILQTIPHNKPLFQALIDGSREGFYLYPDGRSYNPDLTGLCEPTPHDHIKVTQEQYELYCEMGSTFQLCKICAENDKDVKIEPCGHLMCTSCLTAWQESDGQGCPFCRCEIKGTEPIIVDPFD

Row | IC50 [1] [nM] | SMILES | CD25 staining CD3/CD28 0.3 μM [2] | IL-2 secretion CD3/CD28 0.3 μM [2] | IL-2 secretion CD3/CD28 1 μM [2] | CD25 staining CD3 1 μM [2] | IL-2 secretion CD3 1 μM [2] | CD25 staining CD3 3 μM [2] | IL-2 secretion CD3 3 μM [2] | CD25 staining CD3/CD28 1 μM [2]
1 | 5 to 20 | CO[C@H]1C[C@@](c2cccc(N3Cc4c(cc(CN5CCC(F)(F)[C@H](C)C5)cc4C(F)(F)F)C3=O)c2)(c2nncn2C)C1 [Compound 33, 6-(((R)-4,4-difluoro-3-methylpiperidin-1-yl)methyl)-2-(3-((1s,3S)-3-methoxy-1-(4-methyl-4H-1,2,4-triazol-3-yl)cyclobutyl)phenyl)-4-(trifluoromethyl)isoindolin-1-one] | B (B indicates 1.24-1.39 fold) | C (C indicates <20 fold) | B (B indicates 20-35 fold) | A (A indicates >2.5 fold) | A (A indicates >1.1 fold) | A (A indicates >2.5 fold) | A (A indicates >1.1 fold) | 
2 | 5 to 20 | C[C@@H]1CN(Cc2cc3c(c(C(F)(F)F)c2)CN(c2cccc([C@]4(c5nncn5C)C[C@H](O)C4)c2)C3=O)CCC1(F)F [Compound 34, 6-(((R)-4,4-difluoro-3-methylpiperidin-1-yl)methyl)-2-(3-(trans-3-hydroxy-1-(4-methyl-4H-1,2,4-triazol-3-yl)cyclobutyl)phenyl)-4-(trifluoromethyl)isoindolin-1-one] | B (B indicates 1.24-1.39 fold) | C (C indicates <20 fold) | A (A indicates >35 fold) | B (B indicates 1.5-2.5 fold) | A (A indicates >1.1 fold) | B (B indicates 1.5-2.5 fold) | A (A indicates >1.1 fold) | B (B indicates 1.24-1.39 fold)
3 | < 5 | C[C@H]1CCCN(Cc2cc3c(c(C(F)(F)F)c2)CN(c2cccc([C@]4(c5nncn5C)C[C@H](O)C4)c2)C3=O)C1 [Compound 35, 2-(3-((1r,3S)-3-hydroxy-1-(4-methyl-4H-1,2,4-triazol-3-yl)cyclobutyl)phenyl)-6-(((S)-3-methylpiperidin-1-yl)methyl)-4-(trifluoromethyl)isoindolin-1-one] | B (B indicates 1.24-1.39 fold) | B (B indicates 20-35 fold) | B (B indicates 20-35 fold) | A (A indicates >2.5 fold) | B (B indicates 0.70-1.1 fold) | A (A indicates >2.5 fold) | B (B indicates 0.70-1.1 fold) | B (B indicates 1.24-1.39 fold)
4 | < 5 | CO[C@H]1C[C@](c2cccc(N3Cc4c(cc(CN5CCC(F)(F)[C@H](C)C5)cc4C(F)(F)F)C3=O)c2)(c2nncn2C)C1 [Compound 36, 6-(((R)-4,4-difluoro-3-methylpiperidin-1-yl)methyl)-2-(3-(trans-3-methoxy-1-(4-methyl-4H-1,2,4-triazol-3-yl)cyclobutyl)phenyl)-4-(trifluoromethyl)isoindolin-1-one] |  | C (C indicates <20 fold) | C (C indicates <20 fold) | C (C indicates <1.5 fold) | C (C indicates <0.70 fold) | C (C indicates <1.5 fold) | C (C indicates <0.70 fold) | 
5 | < 5 | CO[C@H]1C[C@](c2cccc(N3Cc4c(cc(CN5CCC[C@H](C)C5)cc4C(F)(F)F)C3=O)c2)(c2nncn2C)C1 [Compound 37, 2-(3-((1r,3S)-3-methoxy-1-(4-methyl-4H-1,2,4-triazol-3-yl)cyclobutyl)phenyl)-6-(((S)-3-methylpiperidin-1-yl)methyl)-4-(trifluoromethyl)isoindolin-1-one] | B (B indicates 1.24-1.39 fold) | B (B indicates 20-35 fold) | B (B indicates 20-35 fold) | A (A indicates >2.5 fold) | A (A indicates >1.1 fold) | A (A indicates >2.5 fold) | B (B indicates 0.70-1.1 fold) | 
6 | < 5 | C[C@H]1CCCN(Cc2cc3c(c(C(F)(F)F)c2)CN(c2cccc([C@]4(c5nncn5C)C[C@H](C#N)C4)c2)C3=O)C1 [Compound 39, (1S,3r)-3-(4-methyl-4H-1,2,4-triazol-3-yl)-3-(3-(6-(((S)-3-methylpiperidin-1-yl)methyl)-1-oxo-4-(trifluoromethyl)isoindolin-2-yl)phenyl)cyclobutane-1-carbonitrile] | B (B indicates 1.24-1.39 fold) | A (A indicates >35 fold) | A (A indicates >35 fold) | A (A indicates >2.5 fold) | A (A indicates >1.1 fold) | A (A indicates >2.5 fold) | A (A indicates >1.1 fold) | B (B indicates 1.24-1.39 fold)
7 | < 5 | C[C@@H]1CN(Cc2cc3c(c(C(F)(F)F)c2)CN(c2cccc([C@]4(c5nncn5C)C[C@H](C#N)C4)c2)C3=O)CCC1(F)F [Compound 40, (1R,3r)-3-(3-(6-(((R)-4,4-difluoro-3-methylpiperidin-1-yl)methyl)-1-oxo-4-(trifluoromethyl)isoindolin-2-yl)phenyl)-3-(4-methyl-4H-1,2,4-triazol-3-yl)cyclobutane-1-carbonitrile] |  | B (B indicates 20-35 fold) | A (A indicates >35 fold) | A (A indicates >2.5 fold) | B (B indicates 0.70-1.1 fold) | A (A indicates >2.5 fold) | B (B indicates 0.70-1.1 fold) | 
8 | < 5 | C[C@@H]1CN(Cc2cc3c(c(C(F)(F)F)c2)CN(c2cccc(C4(c5nncn5C)CC5(CC5)C4)c2)C3=O)CCC1(F)F [Compound 41, 6-[[(3R)-4,4-difluoro-3-methyl-1-piperidyl]methyl]-2-[3-[5-(4-methyl-1,2,4-triazol-3-yl)spiro[2.3]hexan-5-yl]phenyl]-4-(trifluoromethyl)isoindolin-1-one] |  | B (B indicates 20-35 fold) | A (A indicates >35 fold) | A (A indicates >2.5 fold) | A (A indicates >1.1 fold) | A (A indicates >2.5 fold) | A (A indicates >1.1 fold) | 
9 | < 5 | C[C@@H]1CN(Cc2cc3c(c(C(F)(F)F)c2)CN(c2cccc(C4(c5nncn5C)CC5(CC5)C4)c2)C3=O)CCO1 [Compound 43, (R)-2-(3-(5-(4-methyl-4H-1,2,4-triazol-3-yl)spiro[2.3]hexan-5-yl)phenyl)-6-((2-methylmorpholino)methyl)-4-(trifluoromethyl)isoindolin-1-one] | B (B indicates 1.24-1.39 fold) | B (B indicates 20-35 fold) | A (A indicates >35 fold) | A (A indicates >2.5 fold) | A (A indicates >1.1 fold) | A (A indicates >2.5 fold) | A (A indicates >1.1 fold) | B (B indicates 1.24-1.39 fold)
10 | < 5 | Cn1cnnc1C1(c2cccc(N3Cc4c(cc(CN5CCC[C@H](C(F)(F)F)C5)cc4C(F)(F)F)C3=O)c2)CC2(CC2)C1 [Compound 44, (S)-2-(3-(5-(4-methyl-4H-1,2,4-triazol-3-yl)spiro[2.3]hexan-5-yl)phenyl)-4-(trifluoromethyl)-6-((3-(trifluoromethyl)piperidin-1-yl)methyl)isoindolin-1-one] |  | B (B indicates 20-35 fold) | A (A indicates >35 fold) | A (A indicates >2.5 fold) | A (A indicates >1.1 fold) | A (A indicates >2.5 fold) | A (A indicates >1.1 fold) | 
11 | < 5 | C[C@@H]1CN(C(C)(C)c2cc3c(c(C(F)(F)F)c2)CN(c2cccc(C4(c5nncn5C)CC5(CC5)C4)c2)C3=O)CCO1 [Compound 45, (R)-2-(3-(5-(4-methyl-4H-1,2,4-triazol-3-yl)spiro[2.3]hexan-5-yl)phenyl)-6-(2-(2-methylmorpholino)propan-2-yl)-4-(trifluoromethyl)isoindolin-1-one] | B (B indicates 1.24-1.39 fold) | B (B indicates 20-35 fold) | B (B indicates 20-35 fold) | A (A indicates >2.5 fold) | A (A indicates >1.1 fold) | A (A indicates >2.5 fold) | A (A indicates >1.1 fold) | 
12 | < 5 | C[C@H]1CCCN(Cc2cc3c(c(C(F)(F)F)c2)CN(c2cccc(C4(c5nncn5C)COC4)c2)C3=O)C1 [Compound 46, 6-[[(3S)-3-methyl-1-piperidyl]methyl]-2-[3-[3-(4-methyl-1,2,4-triazol-3-yl)oxetan-3-yl]phenyl]-4-(trifluoromethyl)isoindolin-1-one] | B (B indicates 1.24-1.39 fold) | A (A indicates >35 fold) | A (A indicates >35 fold) | B (B indicates 1.5-2.5 fold) | A (A indicates >1.1 fold) | A (A indicates >2.5 fold) | A (A indicates >1.1 fold) | B (B indicates 1.24-1.39 fold)
